Measured values: the NIST ThermoML archive (doi:10.1021/je800635g)
± gives the expanded uncertainty stated by the source.

Conditions: Liquid, Falling or rolling sphere viscometry

Cc1ccccc1 [toluene]
Conditions | viscosity [mPa·s]
313.15 K, 100 kPa | 0.4651 ± 0.0049
323.15 K, 100 kPa | 0.4158 ± 0.0044
333.15 K, 100 kPa | 0.3758 ± 0.0039
333.15 K, 800 kPa | 0.3839 ± 0.004
333.15 K, 1600 kPa | 0.3889 ± 0.004
333.15 K, 2400 kPa | 0.3955 ± 0.0041
333.15 K, 3200 kPa | 0.4008 ± 0.0042
343.15 K, 100 kPa | 0.3428 ± 0.0036
353.15 K, 100 kPa | 0.3137 ± 0.0033
363.15 K, 100 kPa | 0.2901 ± 0.003
373.15 K, 100 kPa | 0.268 ± 0.0028
373.15 K, 800 kPa | 0.2706 ± 0.0029
373.15 K, 1600 kPa | 0.2742 ± 0.0029
373.15 K, 2400 kPa | 0.278 ± 0.0029
373.15 K, 3200 kPa | 0.2822 ± 0.003
393.15 K, 1600 kPa | 0.2397 ± 0.0025
413.15 K, 1600 kPa | 0.2058 ± 0.0022
433.15 K, 1600 kPa | 0.1769 ± 0.0019
453.15 K, 1600 kPa | 0.1517 ± 0.0016
473.15 K, 1600 kPa | 0.1353 ± 0.0015

CCCCCCCCCC [decane]
Conditions | viscosity [mPa·s]
313.15 K, 100 kPa | 0.7051 ± 0.0075
323.15 K, 100 kPa | 0.6356 ± 0.0068
333.15 K, 100 kPa | 0.5646 ± 0.0061
333.15 K, 800 kPa | 0.5732 ± 0.0061
333.15 K, 1600 kPa | 0.5714 ± 0.0061
333.15 K, 2400 kPa | 0.5756 ± 0.0061
333.15 K, 3200 kPa | 0.5792 ± 0.0061
343.15 K, 100 kPa | 0.5069 ± 0.0054
353.15 K, 100 kPa | 0.4514 ± 0.0048
363.15 K, 100 kPa | 0.4136 ± 0.0044
373.15 K, 100 kPa | 0.3729 ± 0.004
373.15 K, 800 kPa | 0.3773 ± 0.0041
373.15 K, 1600 kPa | 0.3818 ± 0.0041
373.15 K, 2400 kPa | 0.3851 ± 0.0042
373.15 K, 3200 kPa | 0.3906 ± 0.0042
393.15 K, 1600 kPa | 0.3216 ± 0.0035
413.15 K, 1600 kPa | 0.279 ± 0.003
433.15 K, 1600 kPa | 0.2328 ± 0.0025
453.15 K, 1600 kPa | 0.2072 ± 0.0023
473.15 K, 1600 kPa | 0.174 ± 0.0019

Cc1ccc(C)cc1 [1,4-dimethylbenzene]
viscosity [mPa·s]
Conditions | 313.15 K | 333.15 K | 353.15 K | 373.15 K | 393.15 K | 413.15 K | 433.15 K | 453.15 K | 473.15 K
100 kPa | 0.499 ± 0.005 | 0.409 ± 0.004 | 0.34 ± 0.004 | 0.292 ± 0.003 | – | – | – | – | –
800 kPa | 0.5029 ± 0.0052 | 0.412 ± 0.004 | 0.346 ± 0.004 | 0.297 ± 0.003 | 0.254 ± 0.003 | 0.221 ± 0.002 | 0.192 ± 0.002 | 0.168 ± 0.002 | –
1600 kPa | 0.51 ± 0.005 | 0.414 ± 0.004 | 0.35 ± 0.004 | 0.3 ± 0.003 | 0.258 ± 0.003 | 0.223 ± 0.002 | 0.197 ± 0.002 | 0.17 ± 0.002 | 0.159 ± 0.002
2400 kPa | 0.516 ± 0.005 | 0.417 ± 0.004 | 0.356 ± 0.004 | 0.303 ± 0.003 | 0.262 ± 0.003 | 0.226 ± 0.002 | 0.201 ± 0.002 | 0.172 ± 0.002 | 0.163 ± 0.002
3200 kPa | 0.521 ± 0.005 | 0.419 ± 0.004 | 0.361 ± 0.004 | 0.305 ± 0.003 | 0.266 ± 0.003 | 0.228 ± 0.002 | 0.206 ± 0.002 | 0.175 ± 0.002 | 0.167 ± 0.002

CC(=O)O [acetic acid]
viscosity [mPa·s]
Conditions | 313.15 K | 333.15 K | 353.15 K | 373.15 K | 393.15 K | 413.15 K | 433.15 K | 453.15 K | 473.15 K
100 kPa | 0.903 ± 0.01 | 0.713 ± 0.008 | 0.574 ± 0.006 | 0.471 ± 0.005 | – | – | – | – | –
800 kPa | 0.91 ± 0.01 | 0.72 ± 0.008 | 0.582 ± 0.006 | 0.478 ± 0.005 | 0.394 ± 0.004 | 0.333 ± 0.004 | 0.281 ± 0.003 | 0.244 ± 0.003 | –
1600 kPa | 0.917 ± 0.01 | 0.727 ± 0.008 | 0.59 ± 0.006 | 0.486 ± 0.005 | 0.402 ± 0.004 | 0.34 ± 0.004 | 0.287 ± 0.003 | 0.251 ± 0.003 | 0.213 ± 0.002
2400 kPa | 0.924 ± 0.01 | 0.735 ± 0.008 | 0.598 ± 0.006 | 0.494 ± 0.005 | 0.41 ± 0.004 | 0.347 ± 0.004 | 0.294 ± 0.003 | 0.258 ± 0.003 | 0.22 ± 0.002
3200 kPa | 0.932 ± 0.01 | 0.743 ± 0.008 | 0.605 ± 0.006 | 0.502 ± 0.005 | 0.418 ± 0.005 | 0.354 ± 0.004 | 0.302 ± 0.003 | 0.264 ± 0.003 | 0.226 ± 0.003
